Results reported in patent publication US11090319B2, “Therapeutic uses of pharmaceutical compositions comprising cyclic boronic acid ester derivatives” (Melinta Subsidiary Corp., priority 2010, dated 2021).
Read-outs that look alike come from different tables or passages of the source.

How the values were obtained:
[1] = system: ECL1004 Enterobacter cloacae NMC-A; experiment: Checkerboard assay, biapenem potentiation; settings: Biapenem MIC 8-fold; ECL1004 NMC-A class A
[2] = system: AB1052 Acinetobacter baumannii OXA-24; experiment: Checkerboard assay, biapenem potentiation; settings: Biapenem MIC 8-fold; AB1052 OXA-24 class D
SHV-5, lysate of ec308 = SHV-5, lysate of ec308 (Escherichia coli, UniProt P0AD63, E235K/G234S); experiment: Inhibition of ceftazidime hydrolysis by bacterial lysate
SHV-18, lysate of KP1012 = SHV-18, lysate of KP1012 (Klebsiella pneumoniae, UniProt P0AD64, E235K/G234A/R39S); experiment: as above
KPC-2, lysate of KP1008 = KPC-2, lysate of KP1008 (Klebsiella pneumoniae, UniProt Q9F663); experiment: as above
SHV-12, lysate of KP1010 = SHV-12, lysate of KP1010 (Klebsiella pneumoniae, UniProt P0AD64, E235K/G234S/L31Q); experiment: as above
KPC-2, lysate of KP1004 = KPC-2, lysate of KP1004 (Klebsiella pneumoniae, UniProt Q9F663); experiment: as above
SME-2, lysate of SM1000 = SME-2, lysate of SM1000 (Serratia marcescens, UniProt P52682); experiment: Inhibition of biapenem hydrolysis by bacterial lysate; settings: read-out: IC50 of inhibition of biapenem hydrolysis; SM1000 SME-2
DHA-1, lysate of EC1014 = DHA-1, lysate of EC1014 (Escherichia coli, UniProt Q84AE0); experiment: Inhibition of ceftazidime hydrolysis by bacterial lysate; settings: read-out: IC50 of inhibition of Ceftazidime hydrolysis; EC1014 DHA-1
OXA-2, lysate of KX1000 = OXA-2, lysate of KX1000 (Salmonella typhimurium, UniProt P0A1V8); experiment: as above
SA1000 Salmonella CMY-2 = experiment: Ceftazidime MIC with fixed concentration of BLI; type: cell-based; settings: derivative at 10 μg/mL; SA1000 CMY-2
Method: (§1) Next, ceftazidime potentiation activity of several cyclic boronic acid ester derivatives was tested using a larger panel of strains expressing β-lactamase hydrolyzing enzymes. Ceftazidime MICs were determined alone and in the presence of fixed concentrations of various cyclic boronic acid ester derivatives.

[3] = system: EC1016 Escherichia coli FOX-5; experiment: Ceftazidime MIC with fixed concentration of BLI; type: cell-based; settings: derivative at 10 μg/mL; EC1016 FOX-5
Method: as §1

[4] = system: KP1013 Klebsiella pneumoniae CMY-2; experiment: Ceftazidime MIC with fixed concentration of BLI; type: cell-based; settings: derivative at 10 μg/mL; KP1013 CMY-2
Method: as §1

[5] = system: ECL1003 Enterobacter cloacae Hyper AmpC expression; experiment: Ceftazidime MIC with fixed concentration of BLI; type: cell-based; settings: derivative at 10 μg/mL
Method: as §1

[6] = system: KP1006 Klebsiella pneumoniae CTX-M2; experiment: Ceftazidime MIC with fixed concentration of BLI; type: cell-based; settings: derivative at 10 μg/mL
Method: as §1

[7] = system: CF1001 Citrobacter freundii Hyper AmpC expression; experiment: Ceftazidime MIC with fixed concentration of BLI; type: cell-based; settings: derivative at 10 μg/mL
Method: as §1

[8] = system: PAM2005 Pseudomonas aeruginosa ampC; experiment: Ceftazidime MIC with fixed concentration of BLI; type: cell-based; settings: derivative at 10 μg/mL
Method: as §1

[9] = system: EC1007 Escherichia coli KPC-3; experiment: Ceftazidime MIC with fixed concentration of BLI; type: cell-based; settings: derivative at 10 μg/mL; EC1007 KPC-3
Method: as §1

GES-1, lysate of pa 1063 = GES-1, lysate of pa 1063 (Klebsiella pneumoniae, UniProt Q9KJY7); experiment: Inhibition of ceftazidime hydrolysis by bacterial lysate
[10] = target: various β-lactamases (bacterial lysates) (Klebsiella pneumoniae, UniProt Q9F663); experiment: biochemical; type: biochemical; settings: aztreonam cleavage
[11] = target: various β-lactamases (bacterial lysates) (Escherichia coli, UniProt A0A649V088); experiment: biochemical; type: biochemical; settings: read-out: AZT IC50 KP1005 CTX-M-14
[12] = target: various β-lactamases (bacterial lysates) (Escherichia coli, UniProt A0A5R8T042); experiment: biochemical; type: biochemical; settings: read-out: AZT IC50 KP1009 CTX-M-15
[13] = target: various β-lactamases (bacterial lysates) (Salmonella typhimurium, UniProt P0A1V8); experiment: biochemical; type: biochemical; settings: AZT IC50 KPX1001 OXA-2
[14] = target: various β-lactamases (bacterial lysates) (Pseudomonas aeruginosa, UniProt P14489); experiment: biochemical; type: biochemical; settings: AZT IC50 KP1007 OXA-10
[15] = target: various β-lactamases (bacterial lysates) (Klebsiella pneumoniae, UniProt Q9F663, H272Y); experiment: biochemical; type: biochemical
[16] = system: KP1011 Klebsiella pneumoniae SHV-5; experiment: microbe, parasite or virus in culture; type: cell-based; settings: derivative at 10 μg/mL; KP1011 SHV-5
Method: as §1

[17] = target: various β-lactamases (bacterial lysates) (Escherichia coli, UniProt Q53TY8); experiment: Inhibition of nitrocefin cleavage by bacterial lysates, Table 11; type: biochemical; settings: lysate EC1010 pAmpC (CMY-6), read-out: NCF IC50 EC1010 pAmpC (CMY-6)
SHV-2, lysate of ec306 = SHV-2, lysate of ec306 (Escherichia coli, UniProt P0A9Z7); experiment: Inhibition of ceftazidime hydrolysis by bacterial lysate
[18] = target: CTX-M-14, lysate of KP1005 (Escherichia coli, UniProt Q9L5C7); experiment: as above

Sequence of various β-lactamases (bacterial lysates) (Escherichia coli, UniProt A0A5R8T042) (A0A5R8T042 29-291): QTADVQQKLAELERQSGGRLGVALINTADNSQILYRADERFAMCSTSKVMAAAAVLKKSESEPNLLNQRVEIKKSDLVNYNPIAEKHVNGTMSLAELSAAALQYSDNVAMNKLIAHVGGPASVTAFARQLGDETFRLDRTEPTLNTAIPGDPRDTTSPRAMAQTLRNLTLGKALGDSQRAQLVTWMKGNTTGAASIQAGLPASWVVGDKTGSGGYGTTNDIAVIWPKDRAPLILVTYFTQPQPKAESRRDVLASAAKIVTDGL

Which results are given for `O=C(O)C[C@@H]1CC[C@H](NC(=O)Cc2ccccc2)B(O)O1` [Compound 6, 2-((3R,6S)-2-hydroxy-3-(2-phenylacetamido)-1,2-oxaborinan-6-yl)acetic acid]?
MPC8 [1]: Y (MPC8 of 0.16 μg/mL to 1 μg/mL); MPC8 [2]: Z (MPC8 of greater than 1 μg/mL); IC50 (SHV-5, lysate of ec308): > 3.44 µM; IC50 (SHV-18, lysate of KP1012): 0.344 to 3.44 µM; IC50 (KPC-2, lysate of KP1008): < 0.344 µM; IC50 (SHV-12, lysate of KP1010): > 3.44 µM; IC50 (KPC-2, lysate of KP1004): < 0.344 µM; IC50 (SME-2, lysate of SM1000): 0.344 to 3.44 µM; IC50 (DHA-1, lysate of EC1014): > 3.44 µM; IC50 (OXA-2, lysate of KX1000): 0.344 to 3.44 µM; Ceftazidime MIC with cyclic boronic acid ester derivative (SA1000 Salmonella CMY-2): X (MIC of 1 μg/mL or less); Ceftazidime MIC with cyclic boronic acid ester derivative [3]: Z (MIC of greater than 8 μg/mL); Ceftazidime MIC with cyclic boronic acid ester derivative [4]: Y (MIC of greater than 1 μg/mL to 8 μg/mL); Ceftazidime MIC with cyclic boronic acid ester derivative [5]: Z (MIC of greater than 8 μg/mL); Ceftazidime MIC with cyclic boronic acid ester derivative [6]: X (MIC of 1 μg/mL or less); Ceftazidime MIC with cyclic boronic acid ester derivative [7]: Y (MIC of greater than 1 μg/mL to 8 μg/mL); Ceftazidime MIC with cyclic boronic acid ester derivative [8]: Z (MIC of greater than 8 μg/mL); Ceftazidime MIC with cyclic boronic acid ester derivative [9]: X (MIC of 1 μg/mL or less); IC50 (GES-1, lysate of pa 1063): 0.344 to 3.44 µM; IC50 ([10]; lysate KP1004 KPC-2, read-out: AZT IC50 KP1004 KPC-2 (converted)): < 1.72 µM; IC50 ([10]; lysate KP1008 KPC-2, read-out: AZT IC50 KP1008 KPC-2): < 1.72 µM; IC50 [11]: < 1.72 µM; IC50 [12]: < 1.72 µM; IC50 [13]: 1.72 to 6.87 µM; IC50 [14]: > 6.87 µM; IC50 [15]: < 1.72 µM; Ceftazidime MIC with cyclic boronic acid ester derivative [16]: X (MIC of 1 μg/mL or less); IC50 [17]: > 6.87 µM; IC50 (SHV-2, lysate of ec306): 0.344 to 3.44 µM; IC50 [18]: 0.344 to 3.44 µM
